Laboratory results from ChEMBL document CHEMBL5512690, “Identification and Validation of PKR as a Direct Target for the Novel Sulfonamide-Substituted Tetrahydroquinoline Nonselective Inhibitor of the NLRP3 Inflammasome” (J Med Chem, 2024).

Biological target: NACHT, LRR and PYD domains-containing protein 3 (Homo sapiens, UniProt Q96P20)
Sequence (Q96P20 whole entry, the tested form may be a part): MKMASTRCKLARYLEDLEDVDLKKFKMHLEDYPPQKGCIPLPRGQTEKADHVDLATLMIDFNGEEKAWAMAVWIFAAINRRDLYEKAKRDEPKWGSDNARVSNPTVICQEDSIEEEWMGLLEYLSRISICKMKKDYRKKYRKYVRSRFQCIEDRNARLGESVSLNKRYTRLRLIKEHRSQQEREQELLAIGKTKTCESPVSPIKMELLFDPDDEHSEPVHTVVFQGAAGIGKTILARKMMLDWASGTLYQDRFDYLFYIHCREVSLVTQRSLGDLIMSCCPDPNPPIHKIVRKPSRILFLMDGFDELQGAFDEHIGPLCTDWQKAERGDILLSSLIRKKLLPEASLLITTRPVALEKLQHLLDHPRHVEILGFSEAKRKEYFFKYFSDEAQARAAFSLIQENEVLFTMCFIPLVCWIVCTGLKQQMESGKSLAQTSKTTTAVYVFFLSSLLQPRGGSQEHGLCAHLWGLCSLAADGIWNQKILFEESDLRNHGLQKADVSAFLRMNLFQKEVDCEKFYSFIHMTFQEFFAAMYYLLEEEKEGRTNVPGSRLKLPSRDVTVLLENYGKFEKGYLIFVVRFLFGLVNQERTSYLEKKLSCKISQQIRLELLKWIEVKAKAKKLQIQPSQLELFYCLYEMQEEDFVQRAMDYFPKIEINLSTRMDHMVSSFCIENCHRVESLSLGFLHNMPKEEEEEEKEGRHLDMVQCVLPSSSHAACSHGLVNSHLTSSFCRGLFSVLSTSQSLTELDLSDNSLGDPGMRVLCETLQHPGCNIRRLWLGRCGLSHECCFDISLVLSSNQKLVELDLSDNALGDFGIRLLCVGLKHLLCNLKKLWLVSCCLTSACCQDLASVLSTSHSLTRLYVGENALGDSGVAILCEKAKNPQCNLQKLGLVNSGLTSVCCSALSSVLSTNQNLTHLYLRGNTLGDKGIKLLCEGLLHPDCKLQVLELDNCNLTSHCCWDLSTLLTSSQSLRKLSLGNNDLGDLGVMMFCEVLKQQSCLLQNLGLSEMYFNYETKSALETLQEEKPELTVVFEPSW
Description: Inhibition of NLRP3 inflammasome activation in LPS primed human differentiated THP-M cells derived PMA induced THP-1 cells assessed as inhibition of IL-1 beta level preincubated with compound for 24 hrs followed by LPS stimulation for 3 hrs and further incubated with ATP for 1 hr by ELISA method
In the case of `O=C(O)c1ccc(/C=C2\SC(=S)N(Cc3cccc(C(F)(F)F)c3)C2=O)cc1`, the IC50 is reported as 5.33 µM.

Tested on: not listed separately
Assay: Cytotoxicity against human differentiated THP-M cells derived PMA induced THP-1 cells measured after 72 hrs by MTT assay
`CC(=O)c1ccc(S(=O)(=O)Nc2ccc3c(c2)N(S(C)(=O)=O)CCC3)cc1` gave a CC50 greater than 100 µM. For `CS(=O)(=O)N1CCCc2ccc(NS(=O)(=O)c3ccc(Br)cc3)cc21`, the CC50 was greater than 100 µM. `CS(=O)(=O)N1CCCc2ccc(NS(=O)(=O)c3ccc4ccccc4c3)cc21` showed a CC50 greater than 100 µM. In the case of `CS(=O)(=O)N1CCCc2ccc(NS(=O)(=O)c3ccccc3)cc21`, the CC50 is reported as greater than 100 µM. For `CCS(=O)(=O)Nc1ccc2c(c1)N(S(C)(=O)=O)CCC2`, the CC50 was greater than 100 µM. For `CS(=O)(=O)N1CCCc2ccc(NS(=O)(=O)c3ccc(Cl)cc3)cc21`, the CC50 was greater than 100 µM. Work on `CS(=O)(=O)N1CCCc2ccc(NS(=O)(=O)c3ccccc3[N+](=O)[O-])cc21` yielded a CC50 greater than 100 µM. For `CS(=O)(=O)N1CCCc2ccc(NS(=O)(=O)c3ccccn3)cc21`, the CC50 was greater than 100 µM. With `CS(=O)(=O)Nc1ccc2c(c1)N(S(C)(=O)=O)CCC2` the CC50 was greater than 100 µM. `CS(=O)(=O)N1CCCc2ccc(NS(=O)(=O)c3ccccc3F)cc21` showed a CC50 greater than 100 µM. In the case of `CS(=O)(=O)N1CCCc2ccc(NS(=O)(=O)c3cccc(F)c3)cc21`, the CC50 is reported as greater than 100 µM. `O=C(O)c1ccc(/C=C2\SC(=S)N(Cc3cccc(C(F)(F)F)c3)C2=O)cc1` showed a CC50 greater than 100 µM. `CS(=O)(=O)N1CCCc2ccc(NS(=O)(=O)c3cccc4cccnc34)cc21` showed a CC50 greater than 100 µM. `COC(=O)c1ccc(S(=O)(=O)Nc2ccc3c(c2)N(S(C)(=O)=O)CCC3)cc1` gave a CC50 greater than 100 µM. `CS(=O)(=O)N1CCCc2ccc(NS(=O)(=O)c3ccc(C(F)(F)F)cc3)cc21` gave a CC50 greater than 100 µM. For `CCCCS(=O)(=O)Nc1ccc2c(c1)N(S(C)(=O)=O)CCC2`, the CC50 was greater than 100 µM. For `CC(=O)Nc1ccc(S(=O)(=O)Nc2ccc3c(c2)N(S(C)(=O)=O)CCC3)cc1`, the CC50 was greater than 100 µM. In the case of `Cc1ccc(S(=O)(=O)Nc2ccc3c(c2)N(S(C)(=O)=O)CCC3)cc1`, the CC50 is reported as greater than 100 µM. Compound `CS(=O)(=O)N1CCCc2ccc(NS(=O)(=O)c3ccc(C#N)cc3)cc21` has a CC50 greater than 100 µM. `CC(C)(C)c1ccc(S(=O)(=O)Nc2ccc3c(c2)N(S(C)(=O)=O)CCC3)cc1` gave a CC50 greater than 100 µM. For `CS(=O)(=O)N1CCCc2ccc(NS(=O)(=O)c3ccc([N+](=O)[O-])cc3)cc21`, the CC50 was greater than 100 µM. With `COC(=O)c1ccsc1S(=O)(=O)Nc1ccc2c(c1)N(S(C)(=O)=O)CCC2` the CC50 was greater than 100 µM. `CS(=O)(=O)N1CCCc2ccc(NS(=O)(=O)c3cccs3)cc21` gave a CC50 greater than 100 µM. In the case of `COc1ccc(S(=O)(=O)Nc2ccc3c(c2)N(S(C)(=O)=O)CCC3)cc1`, the CC50 is reported as greater than 100 µM. `CS(=O)(=O)N1CCCc2ccc(NS(=O)(=O)c3cccc4ccccc34)cc21` gave a CC50 greater than 100 µM. Compound `CS(=O)(=O)N1CCCc2ccc(NS(=O)(=O)Cc3ccccc3)cc21` has a CC50 greater than 100 µM. With `CS(=O)(=O)N1CCCc2ccc(NS(=O)(=O)c3cc(C(F)(F)F)cc(C(F)(F)F)c3)cc21` the CC50 was greater than 100 µM. Work on `CCCS(=O)(=O)Nc1ccc2c(c1)N(S(C)(=O)=O)CCC2` yielded a CC50 greater than 100 µM. Compound `CS(=O)(=O)N1CCCc2ccc(NS(=O)(=O)c3ccc(F)cc3)cc21` has a CC50 greater than 100 µM.
